From patent US10676438B2, “KCNQ2-5 channel activator” (Ono Pharmaceutical Co., Ltd., priority 2014, dated 2020)
In brackets after ≈: the same amount, converted by molar mass.

Assays:
Human KCNQ2/3 channel = Human KCNQ2/3 channel (Homo sapiens (Human), UniProt O43525+O43526); assay: Opening action with respect to KCNQ2/3 channel by depolarization stimulation (thallium influx, FLIPR); type: cell-based; conditions: concentration giving 50% of maximum reaction of retigabine (10 μM); human KCNQ2/3 expression CHO-DHFR- cells; 5 mM potassium and 0.5 mM thallium; read-out: KCNQ2/3 ECrtg50
Procedure: Human KCNQ2/3 expression cells (CHO-DHFR-cells) were seeded in each well of 384 well plate (collagen-coated, black, clear bottom) at 0.5×10^4 cells/50 μL per well, and cultured in a MEM ALPHA medium (containing 10 vol % inactivated (56° C., 30 min) Fetal Bovine Serum and 100 IU/mL Penicillin—100 μg/mL Streptomycin—2 mM L-Glutamine) at 37° C. in 5% CO2 for 18 to 24 hours. The medium in the plate was removed. Then, incubation (room temperature, 60 minutes, light-shielded) was carried out in a loading buffer (prepared by the method described in the manual of FluxOR Thallium Detection Kit (Invitrogen, F10016, F10017)). KCNQ2/3 channel opening action (thallium influx into cells) by the depolarization stimulation (5 mM potassium and 0.5 mM thallium) was measured by FLIPR TETRA (Molecular Devices). The compound of the present invention had been treated five minutes before the depolarization stimulation, and the reaction induced by the depolarization stimulation was measured over time for 180 seconds. The channel opening action of the compound of the present invention was evaluated based on the change amount of the fluorescence intensity from the time before the depolarization stimulation to the time after the passage of 180 seconds. Thus, the concentration (ECrtg50) satisfying 50% of the fluorescence intensity change of maximum reaction (at the time of 10 μM-treatment) of retigabine under this experiment condition was calculated.

[1] = Solubility test (DMSO precipitation method, Pharmacopoeia of Japan elution test second solution); type: physicochemical; conditions: Pharmacopoeia of Japan elution test second solution pH=6.8, room temperature, five hours, quantitation range 5 to 100 μM; for solubility at 5 h: aqueous buffer, kinetic from dmso stock
Procedure: A calibration curve solution was prepared by diluting a test substance (10 mM DMSO solution) with acetonitrile and adding acetonitrile including an internal standard substance (candesartan) so as to be 0.1, 0.4, and 2 μM.
Sample solution was prepared as follows: 5 μL of the compound of the present invention (10 mM DMSO solution) was added to 495 μL of the Pharmacopoeia of Japan elution test second solution (pH=6.8), and the resulting mixture was stirred at room temperature for five hours. Then, the solution was placed into a solubility filter plate and subjected to suction filtration. The filtrate (20 μL) was diluted with acetonitrile, followed by adding acetonitrile including an internal standard substance ([…]).
The calibration curve and sample solutions in the amount of 5 μL were infused into LC-MS/MS (Discovery Max manufactured by Thermo Scientific) and subjected to quantitation (quantitation range: 5 to 100 μM).

Structure (SMILES) | EC50 (Human KCNQ2/3 channel) [nM] | Solubility [1] [µM] | solubility at 5 h [1] [µM]
CC(O)(c1ccc(NC(=O)NCc2ccc(C(F)(F)F)cn2)cc1)C(F)(F)F (stereo not shown) [Comparative Example 1, 1-[4-(1,1,1-trifluoro-2-hydroxy-2-propanyl)phenyl]-3-{[5-(trifluoromethyl)-2-pyridinyl]methyl}urea, reference compound] | > 10000 | – | –
O=C(Cc1ccc(F)cc1)Nc1c(Cl)cc(Cl)cc1Br [Comparative Example 2, N-(2-bromo-4,6-dichlorophenyl)-2-(4-fluorophenyl)acetamide, reference compound] | – | <5 | < 5
CC(O)(c1cc(Cl)c(NC(=O)NCc2cccc(N3CCCCC3)n2)c(Cl)c1)C(F)(F)F (stereo not shown) [Example 5 (3), 1-[2,6-dichloro-4-(1,1,1-trifluoro-2-hydroxy-2-propanyl)phenyl]-3-{[6-(1-piperidinyl)-2-pyridinyl]methyl}urea] | 500 | – | –
CC(NC(=O)Nc1c(Cl)cc(C(C)(O)C(F)(F)F)cc1Cl)C(C)(C)C (stereo not shown) [Example 5 (4), 1-[2,6-dichloro-4-(1,1,1-trifluoro-2-hydroxy-2-propanyl)phenyl]-3-(3,3-dimethyl-2-butanyl)urea] | 3 | – | 79 (≈ 31.7 µg/mL)
CC1(C)CC(CNC(=O)Nc2c(Cl)cc(C(C)(O)C(F)(F)F)cc2Cl)CCO1 (stereo not shown) [Example 5 (5), 1-[2,6-dichloro-4-(1,1,1-trifluoro-2-hydroxy-2-propanyl)phenyl]-3-[(2,2-dimethyltetrahydro-2H-pyran-4-yl)methyl]urea] | 300 | – | 93 (≈ 41.2 µg/mL)
CC(O)(c1cc(Cl)c(NC(=O)NCC2(O)CCC(F)(F)CC2)c(Cl)c1)C(F)(F)F (stereo not shown) [Example 5 (6), 1-[2,6-dichloro-4-(1,1,1-trifluoro-2-hydroxy-2-propanyl)phenyl]-3-[(4,4-difluoro-1-hydroxycyclohexyl)methyl]urea] | 400 | – | 94 (≈ 43.7 µg/mL)
Cc1cccnc1CNC(=O)Nc1c(Cl)cc(C(C)(O)C(F)(F)F)cc1Cl (stereo not shown) [Example 5 (7), 1-[2,6-dichloro-4-(1,1,1-trifluoro-2-hydroxy-2-propanyl)phenyl]-3-[(3-methyl-2-pyridinyl)methyl]urea] | 500 | – | –
CC(O)(c1cc(Cl)c(NC(=O)NCc2ccc(Cl)s2)c(Cl)c1)C(F)(F)F (stereo not shown) [Example 5 (8), 1-[(5-chloro-2-thienyl)methyl]-3-[2,6-dichloro-4-(1,1,1-trifluoro-2-hydroxy-2-propanyl)phenyl]urea] | 1 | – | –
CC(O)(c1cc(Cl)c(NC(=O)NCc2ncccc2C(F)(F)F)c(Cl)c1)C(F)(F)F (stereo not shown) [Example 5 (9), 1-[2,6-dichloro-4-(1,1,1-trifluoro-2-hydroxy-2-propanyl)phenyl]-3-{[3-(trifluoromethyl)-2-pyridinyl]methyl}urea] | 300 | – | 91 (≈ 43.3 µg/mL)
CC(O)(c1cc(Cl)c(NC(=O)NCC2CCCCC2)c(Cl)c1)C(F)(F)F (stereo not shown) [Example 5 (10), 1-(cyclohexylmethyl)-3-[2,6-dichloro-4-(1,1,1-trifluoro-2-hydroxy-2-propanyl)phenyl]urea] | 0.3 | – | –
CC(O)(c1cc(Cl)c(NC(=O)NCc2ccc(Br)cn2)c(Cl)c1)C(F)(F)F (stereo not shown) [Example 5 (11), 1-[(5-bromo-2-pyridinyl)methyl]-3-[2,6-dichloro-4-(1,1,1-trifluoro-2-hydroxy-2-propanyl)phenyl]urea] | 70 | – | –
CC(O)(c1cc(Cl)c(NC(=O)NCc2nccn2Cc2ccccc2)c(Cl)c1)C(F)(F)F (stereo not shown) [Example 5 (12), 1-[(1-benzyl-1H-imidazole-2-yl)methyl]-3-[2,6-dichloro-4-(1,1,1-trifluoro-2-hydroxy-2-propanyl)phenyl]urea] | 2900 | – | –
CC(O)(c1cc(Cl)c(NC(=O)NCc2cc(-c3ccccc3)on2)c(Cl)c1)C(F)(F)F (stereo not shown) [Example 5 (16), 1-[2,6-dichloro-4-(1,1,1-trifluoro-2-hydroxy-2-propanyl)phenyl]-3-[(5-phenyl-1,2-oxazole-3-yl)methyl]urea] | 10 | – | –
CC(O)(c1cc(Cl)c(NC(=O)NCc2ccc(C(F)(F)F)o2)c(Cl)c1)C(F)(F)F (stereo not shown) [Example 5 (17), 1-[2,6-dichloro-4-(1,1,1-trifluoro-2-hydroxy-2-propanyl)phenyl]-3-{[5-(trifluoromethyl)-2-furyl]methyl}urea] | 3 | – | –
CC(C)[C@@H](C)NC(=O)Nc1c(Cl)cc(C(C)(O)C(F)(F)F)cc1Cl (stereo partly drawn) [Example 5 (21), 1-[2,6-dichloro-4-(1,1,1-trifluoro-2-hydroxy-2-propanyl)phenyl]-3-[(2R)-3-methyl-2-butanyl]urea] | 70 | – | –
CC(O)(c1cc(Cl)c(NC(=O)NCc2nc(C3CC3)no2)c(Cl)c1)C(F)(F)F (stereo not shown) [Example 5 (22), 1-[(3-cyclopropyl-1,2,4-oxadiazole-5-yl)methyl]-3-[2,6-dichloro-4-(1,1,1-trifluoro-2-hydroxy-2-propanyl)phenyl]urea] | 700 | – | 85 (≈ 37.3 µg/mL)
CC(C)(C)c1cc(CNC(=O)Nc2c(Cl)cc(C(C)(O)C(F)(F)F)cc2Cl)no1 (stereo not shown) [Example 13, 1-[2,6-dichloro-4-(1,1,1-trifluoro-2-hydroxy-2-propanyl)phenyl]-3-{[5-(2-methyl-2-propanyl)-1,2-oxazole 3-yl]methyl}urea] | 10 | – | 69 (≈ 31.3 µg/mL)
CC(O)(c1cc(Cl)c(NC(=O)NCc2ncc(C(F)(F)F)cn2)c(Cl)c1F)C(F)(F)F (stereo not shown) [Example 43 (1), 1-[2,6-dichloro-3-fluoro-4-(1,1,1-trifluoro-2-hydroxy-2-propanyl)phenyl]-3-{[5-(trifluoromethyl)-2-pyrimidinyl]methyl}urea] | 400 | – | 89 (≈ 44.1 µg/mL)
CC(O)(c1cc(F)c(NC(=O)NCc2ccc(C(F)(F)F)cn2)c(Cl)c1)C(F)(F)F (stereo not shown) [Example 49, 1-[2-chloro-6-fluoro-4-(1,1,1-trifluoro-2-hydroxy-2-propanyl)phenyl]-3-{[5-(trifluoromethyl)-2-pyridinyl]methyl}urea] | 600 | – | –
CC(O)(c1cc(Cl)c(NC(=O)CCc2ccc(F)cc2)c(Cl)c1)C(F)(F)F (stereo not shown) [Example 50 (2), N-[2,6-dichloro-4-(1,1,1-trifluoro-2-hydroxy-2-propanyl)phenyl]-3-(4-fluorophenyl)propanamide] | 30 | – | 41 (≈ 17.4 µg/mL)
CC(C)(C)CC(=O)Nc1c(Cl)cc(C(C)(O)C(F)(F)F)cc1Cl (stereo not shown) [Example 50 (4), N-[2,6-dichloro-4-(1,1,1-trifluoro-2-hydroxy-2-propanyl)phenyl]-3,3-dimethylbutane amide] | 50 | – | –
CC(O)(c1cc(Cl)c(NC(=O)CCc2cccc(C(F)(F)F)c2)c(Cl)c1)C(F)(F)F (stereo not shown) [Example 50 (6), N-[2,6-dichloro-4-(1,1,1-trifluoro-2-hydroxy-2-propanyl)phenyl]-3-[3-(trifluoromethyl)phenyl]propanamide] | 60 | – | –
CC(O)(c1cc(Cl)c(NC(=O)CCc2ccccc2C(F)(F)F)c(Cl)c1)C(F)(F)F (stereo not shown) [Example 50 (7), N-[2,6-dichloro-4-(1,1,1-trifluoro-2-hydroxy-2-propanyl)phenyl]-3-[2-(trifluoromethyl)phenyl]propanamide] | 40 | – | –
Cc1cc(C(O)C(F)(F)F)cc(Cl)c1NC(=O)NCc1ccc(C(F)(F)F)cn1 (stereo not shown) [Example 62, 1-[2-chloro-6-methyl-4-(2,2,2-trifluoro-1-hydroxyethyl)phenyl]-3-{[5-(trifluoromethyl)-2-pyridinyl]methyl}urea] | 60 | – | 71 (≈ 31.4 µg/mL)
CC(O)(CC(F)(F)F)c1cc(Cl)c(NC(=O)NCc2ccc(C(F)(F)F)cn2)c(Cl)c1 (stereo not shown) [Example 67, 1-[2,6-dichloro-4-(4,4,4-trifluoro-2-hydroxy-2-butanyl)phenyl]-3-{[5-(trifluoromethyl)-2-pyridinyl]methyl}urea] | 3500 | – | –
COC(C)(c1cc(Cl)c(NC(=O)NCc2ccc(C(F)(F)F)cn2)c(Cl)c1)C(F)(F)F (stereo not shown) [Example 71, 1-[2,6-dichloro-4-(1,1,1-trifluoro-2-methoxy-2-propanyl)phenyl]-3-{[5-(trifluoromethyl)-2-pyridinyl]methyl}urea] | 200 | – | –
NC(c1cc(Cl)c(NC(=O)NCc2cnc(C(F)(F)F)s2)c(Cl)c1)C(F)(F)F (stereo not shown) [Example 79 (4), 1-[4-(1-amino-2,2,2-trifluoroethyl)-2,6-dichlorophenyl]-3-{[2-(trifluoromethyl)-1,3-thiazole-5-yl]methyl}urea] | 300 | – | –
